Activity calls are given as the source filed them. The rule behind the calls is not given here.
Legend:
Format in all cases: functional
MCF7 [1] = experiment: Cytotoxicity against human MCF7 cells assessed as reduction in cell viability after 72 hrs by resazurin dye-based fluorescence assay; details: MCF7, 72 h
ADR5000 cell line [2] = experiment: Cytotoxicity against human CEM/ADR5000 cells assessed as reduction in cell viability after 72 hrs by resazurin dye-based fluorescence assay; details: ADR5000, 72 h
CCRF-CEM [3] = experiment: Cytotoxicity against human CCRF-CEM cells assessed as reduction in cell viability after 72 hrs by resazurin dye-based fluorescence assay
ADR5000 cell line [4] = experiment: Cytotoxicity against human CEM/ADR5000 cells assessed as reduction in cell viability at 10 uM after 72 hrs by resazurin dye-based fluorescence assay
CCRF-CEM [5] = experiment: Cytotoxicity against human CCRF-CEM cells assessed as reduction in cell viability at 10 uM after 72 hrs by resazurin dye-based fluorescence assay
MCF7 [6] = experiment: Cytotoxicity against human MCF7 cells assessed as reduction in cell viability at 10 uM after 72 hrs by resazurin dye-based fluorescence assay

Row | Structure (SMILES) | IC50 (MCF7 [1]) [nM] | IC50 (ADR5000 cell line [2]) [nM] | IC50 (CCRF-CEM [3]) [nM] | Activity (ADR5000 cell line [4]) | Activity (CCRF-CEM [5]) | Activity (MCF7 [6])
1 | CC(=O)O[C@H]1C[C@]2(C=O)[C@H]3CC[C@]4(C)[C@@H](c5ccc(=O)oc5)CC[C@]4(O)[C@@H]3CC[C@]2(O)C[C@H]1OC(C)=O | 3500 | 500 | 500 |  |  | 
2 | C[C@@]12O[C@H]3C[C@@H](O1)[C@]1(C=O)[C@H]4CC[C@]5(C)[C@@H](c6ccc(=O)oc6)CC[C@]5(O)[C@@H]4CC[C@@]1(C3)O2 | 1000 | 200 | 200 |  |  | 
3 | CC(=O)OC[C@]12[C@@H]3OC4(C)O[C@H](C[C@]1(CC[C@@H]1[C@@H]2CC[C@]2(C)[C@@H](c5ccc(=O)oc5)CC[C@]12O)O4)[C@H]3O |  |  |  | inactive | inactive | inactive
4 | CC(=O)O[C@H]1C[C@]2(C=O)[C@H]3CC[C@]4(C)[C@@H](c5ccc(=O)oc5)CC[C@]4(O)[C@@H]3CC[C@]2(OC(C)=O)C[C@H]1OC(C)=O | 300 | 100 | 100 |  |  | 
5 | C[C@@]12O[C@H]3C[C@@H](O1)[C@]1(C=O)[C@H]4CC[C@@]5(C)[C@@H]([C@@H]4CC[C@@]1(C3)O2)[C@@H]1O[C@@H]1[C@@H]5c1ccc(=O)oc1 | 4500 | 1600 | 1600 |  |  | 
6 | C[C@@]12O[C@H]3C[C@@H](O1)[C@]1(C=O)[C@H]4CC[C@]5(C)[C@@H](c6ccc(=O)oc6)[C@@H](O)C[C@]5(O)[C@@H]4CC[C@@]1(C3)O2 | 3100 | 800 | 600 |  |  | 
7 | CC(=O)OC[C@]12[C@H]3C[C@H]4C[C@]1(CC[C@@H]1[C@@H]2CC[C@]2(C)[C@@H](c5ccc(=O)oc5)CC[C@]12O)OC(C)(O4)O3 |  |  |  | inactive | inactive | inactive
8 | COc1cccc2c1C(=O)c1c(O)c3c(c(O)c1C2=O)C[C@@](O)(C(=O)CO)C[C@@H]3O[C@H]1C[C@H](N)[C@H](O)[C@H](C)O1 [DOXORUBICIN] | 180 |  | 20 |  |  | 
9 | CC(=O)O[C@H]1[C@H]2O[C@@]3(C)O[C@@H]1C[C@]1(CC[C@H]4[C@H]5[C@@H]6O[C@@H]6[C@H](c6ccc(=O)oc6)[C@@]5(C)CC[C@@H]4[C@@]21C=O)O3 | 4300 | 1800 | 1600 |  |  | 
10 | CC(=O)OC[C@]12[C@@H]3OC4(C)O[C@H](C[C@]1(CC[C@@H]1[C@@H]2CC[C@]2(C)[C@@H](c5ccc(=O)oc5)[C@H]5O[C@H]5[C@]12O)O4)[C@H]3OC(C)=O |  |  |  | inactive | inactive | inactive

Source: ChEMBL document CHEMBL4665700, “Cytotoxic Bufadienolides from the Leaves of Melianthus major” (J Nat Prod, 2020)
